Experimental findings from patent US11304926B2, “Application of transient receptor potential cation channel TRPV3 in developing drug for preventing or treating psoriasis” (CHINA PHARMACEUTICAL UNIVERSITY, priority 2019, dated 2022) are described below.

Molecules are shown by their SMILES. “Also recorded” adds a separate entry of the source.

One experiment deals with T1, mTRPV3 (Mus musculus, UniProt Q8K424).
T1 construct: expressed in transfected cells
T1 sequence (Q8K424 1-791): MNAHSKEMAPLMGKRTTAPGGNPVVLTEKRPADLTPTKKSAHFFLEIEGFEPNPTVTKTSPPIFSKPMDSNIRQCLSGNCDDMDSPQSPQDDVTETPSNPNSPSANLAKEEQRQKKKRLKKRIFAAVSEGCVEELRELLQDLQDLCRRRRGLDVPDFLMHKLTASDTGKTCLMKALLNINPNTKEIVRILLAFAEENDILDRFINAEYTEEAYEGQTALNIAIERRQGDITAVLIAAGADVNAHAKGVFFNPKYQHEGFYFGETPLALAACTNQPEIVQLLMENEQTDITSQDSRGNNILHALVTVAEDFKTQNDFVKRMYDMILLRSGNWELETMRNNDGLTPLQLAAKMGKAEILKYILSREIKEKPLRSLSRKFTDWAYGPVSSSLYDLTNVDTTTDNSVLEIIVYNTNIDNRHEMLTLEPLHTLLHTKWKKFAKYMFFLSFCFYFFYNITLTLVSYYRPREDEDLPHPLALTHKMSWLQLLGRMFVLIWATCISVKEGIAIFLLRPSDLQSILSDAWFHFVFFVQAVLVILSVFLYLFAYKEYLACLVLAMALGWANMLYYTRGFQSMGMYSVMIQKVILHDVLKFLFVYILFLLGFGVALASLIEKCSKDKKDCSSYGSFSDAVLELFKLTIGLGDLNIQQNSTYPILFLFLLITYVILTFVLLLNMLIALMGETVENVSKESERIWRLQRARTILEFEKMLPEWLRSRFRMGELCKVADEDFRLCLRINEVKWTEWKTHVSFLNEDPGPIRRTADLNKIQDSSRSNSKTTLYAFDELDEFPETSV
As to the kind of experiment: Intracellular calcium fluorescence (Fluo-4, FLIPR) in HEK-293 cells stably transfecting mTRPV3, 2-APB induced. The class given is cell-based. As to conditions: Scutellarein 10 μM, 2-APB 300 μM, mTRPV3-HEK-293. On the procedure:
mTRPV3 plasmids were donated by Professor Jie Zheng from UC Davis. Transfection steps were as follows: HEK-293 cells with a confluence ranging from 70% to 80% and a good growth state were seeded into T-60 small dishes the day before transfection, each small dish contained 4×10^5 cells, and the cells were cultured without penicillin/streptomycin overnight at 37° C. in 5% CO2. 10 μL of plasmids (plasmid concentration was 1000 ng/μL) were diluted with 250 μl of DMEM (article number: 12800017, Gibco), and meanwhile, 10 μL of Lipofectamine 2000 (article number: 11668027, Gibco) was diluted into 250 μL of DMEM. […] Monoclone cells were selected by a limiting dilution method: the screened cells were digested and counted, and seeded into a 96-well plate in sequence at densities of 10^4 cells/well, 10^3 cells/well, 10^2 cells/well, 10 cells/well, and 1 cell/well. Under a fluorescence microscope, wells of separate cells with green fluorescence were labeled, and cells amplified from the wells were HEK-293 cells stably transfecting the mTRPV3. […] The cell plate was placed in a preheated FLIPR® ^TETRA (Molecular Devices, Sunnyvale, Calif., USA) at 30° C., and excited at a wavelength of 488 nm, and fluorescence signals were continuously recorded at a sampling frequency of 1 second at a wavelength range of 515 nm to 575 nm. […]
On the technique in general: Calcium assays in cells follow changes in intracellular calcium, usually with a dye or a luminescent sensor.

Experiment [1] concerns mouse psoriasis model induced by 5% IMQ. Description: Histopathological examination (HE staining, epidermal thickness) of mouse psoriasis model under drug intervention. The class given is in vivo. As to conditions: subcutaneous injection, 5% IMQ model. An excerpt: After sacrifice of the mice, skin tissues were collected, fixed with 10% (mass fraction) paraformaldehyde solution, embedded in paraffin, and then subjected to 3 μm slicing and HE staining. An Eclipse Ti inverted microscope (Nikon Corporation, Tokyo, Japan) was used to observe and take a photo at 400-times magnification, and NIS-element BR software (Nikon Corporation, Tokyo, Japan) was used to measure an epidermal thickness of the skin. Six fields of view were randomly selected for each section. […] It should be noted that measurement data was represented by mean±standard deviation (mean±SD), and was detected by One-Way ANOVA, wherein ** represented that P<0.01, which was relative to the vaseline group.

Regarding `O=c1cc(-c2ccc(O)cc2)oc2cc(O)c(O)c(O)c12` [Scutellarein], the “inhibition of increase of intracellular calcium concentration (calcium influx) induced by 2-APB” value on mTRPV3 is “could inhibit increase of the intracellular calcium concentration; also recorded: obvious inhibitory effect”. In experiment [1], the “epidermal thickness at lesion part” value is listed as “significantly reduce” and the “pathological changes of the skin induced by imiquimod” value is on record as “could improve the above pathological changes”.
